# Assay results published in US11229618B2 (Amarin Pharmaceuticals Ireland Limited, priority 2012, dated 2022).
# Assay: ANCHOR: plasma fatty acid concentrations, ratios and class proportions (GC/FID)
# Format: in vivo, human
# Settings: for AA plasma Placebo-adjusted percent change from baseline / DHA plasma Placebo-adjusted percent change from baseline / DPAn-3 plasma Placebo-adjusted percent change from baseline / Linoleic plasma Placebo-adjusted percent change from baseline / Oleic plasma Placebo-adjusted percent change from baseline / Palmitic plasma Placebo-adjusted percent change from baseline / Ratio of AA/EPA plasma Placebo-adjusted percent change from baseline / Ratio of total ω-3/total ω-6 plasma Placebo-adjusted percent change from baseline / Stearic plasma Placebo-adjusted percent change from baseline: week 12, LS mean; for Monounsaturated, proportion of total fatty acids, plasma, Change from baseline / Saturated, proportion of total fatty acids, plasma, Change from baseline / Total ω-3, proportion of total fatty acids, plasma, Change from baseline / Total ω-6, proportion of total fatty acids, plasma, Change from baseline: LS mean (SE); for AA plasma Change from baseline / DHA plasma Change from baseline / DPAn-3 plasma Change from baseline / Linoleic plasma Change from baseline / Oleic plasma Change from baseline / Palmitic plasma Change from baseline / Ratio of AA/EPA plasma Change from baseline / Ratio of total ω-3/total ω-6 plasma Change from baseline / Stearic plasma Change from baseline: baseline to week 12, LS mean; for AA plasma End-of-treatment / DHA plasma End-of-treatment / DPAn-3 plasma End-of-treatment / Linoleic plasma End-of-treatment / Oleic plasma End-of-treatment / Palmitic plasma End-of-treatment / Ratio of AA/EPA plasma End-of-treatment / Ratio of total ω-3/total ω-6 plasma End-of-treatment / Stearic plasma End-of-treatment: week 12, mean; for Monounsaturated, proportion of total fatty acids, plasma, End-of-treatment / Saturated, proportion of total fatty acids, plasma, End-of-treatment / Total ω-3, proportion of total fatty acids, plasma, End-of-treatment / Total ω-6, proportion of total fatty acids, plasma, End-of-treatment: week 12, mean (SD)
# Description: A multi-center, placebo-controlled, randomized, double-blind, 12-week study was performed to evaluate the efficacy and safety of >96% E-EPA in patients with fasting triglyceride levels≥200 mg/dl and <500 mg/dl despite statin therapy (the mean of two qualifying entry values needed to be ≥185 mg/dl and at least one of the values needed to be ≥200 mg/dl). The primary objective of the study was to determine the efficacy of >96% E-EPA 2 g daily and 4 g daily, compared to placebo, in lowering fasting TG levels in patients with high risk for cardiovascular disease and with fasting TG levels≥200 mg/dL and <500 mg/dL, despite treatment to LDL-C goal on statin therapy.
# During the double-blind treatment period, patients were to take 2 capsules (>96% E-EPA or matching placebo) in the morning and 2 capsules in the evening for a total of 4 capsules per day. • Patients in the >96% E-EPA 2 g/day treatment group received 1>96% E-EPA 1 g capsule and 1 matching placebo capsule in the morning and in the evening. • Patients in the >96% E-EPA 4 g/day treatment group received 2>96% E-EPA 1 g capsules in the morning and evening. • Patients in the placebo group received 2 matching placebo capsules in the morning and evening.
# Lipids were extracted from plasma and red blood cell (“RBC”) suspensions and converted into fatty acid methyl esters for analysis using a standard validated gas chromatography/flame ionization detection method. Fatty acid parameters were compared between EPA treatment groups and placebo using an ANCOVA model with treatment, gender, type of statin therapy, and presence of diabetes as factors, and the baseline parameter value as a covariate. LSMs, SEs, and 2-tailed 95% confidence intervals for each treatment group and for each comparison were determined.
# The monounsaturated fatty acid group included myristoleic, palmitoleic, cis-vaccenic, oleic, gondoic/gadoleic, erucic and nervonic acids. The saturated fatty acid group included myristic, palmitic, stearic, arachidic, behenic and lignoceric acids. The “total ω-3” group included α-linolenic, stearidonic, eicosatrienoic, ω-3 arachidonic, eicosapentaenoic, ω-3 docosapentaenoic and docosahecaenoic acids. The “total ω-6” group included linoleic, γ-linolenic, eicosadienoic, dihomo-γ-linolenic, ω-6 arachidonic, adrenic, and ω-6 docosapentaenoic acids. The “total fatty acid” group represented the sum of the monounsaturated, saturated, total ω-3 and total ω-6 groups.
smiles,measurement,setting,value
"CC/C=C\C/C=C\C/C=C\C/C=C\C/C=C\CCCC(=O)OCC [IPE, all-cis eicosa-5,8,11,14,17-pentaenoic acid ethyl ester]","Monounsaturated, proportion of total fatty acids, plasma, Placebo-adjusted percent change from baseline",2 g/day vs placebo,−1.4%
same,"Saturated, proportion of total fatty acids, plasma, Placebo-adjusted percent change from baseline",2 g/day vs placebo,−0.2%
same,"Total ω-3, proportion of total fatty acids, plasma, Placebo-adjusted percent change from baseline",2 g/day vs placebo,60.3%
same,"Total ω-6, proportion of total fatty acids, plasma, Placebo-adjusted percent change from baseline",2 g/day vs placebo,−4.6%
same,AA plasma Placebo-adjusted percent change from baseline,2 g/day vs placebo,−19.1%
same,DHA plasma Placebo-adjusted percent change from baseline,2 g/day vs placebo,−0.7%
same,DPAn-3 plasma Placebo-adjusted percent change from baseline,2 g/day vs placebo,88.9%
same,Linoleic plasma Placebo-adjusted percent change from baseline,2 g/day vs placebo,−14.5%
same,Oleic plasma Placebo-adjusted percent change from baseline,2 g/day vs placebo,−14.3%
same,Palmitic plasma Placebo-adjusted percent change from baseline,2 g/day vs placebo,−12.1%
same,Ratio of AA/EPA plasma Placebo-adjusted percent change from baseline,2 g/day vs placebo,−75.4%
same,Ratio of total ω-3/total ω-6 plasma Placebo-adjusted percent change from baseline,2 g/day vs placebo,64.3%
same,Stearic plasma Placebo-adjusted percent change from baseline,2 g/day vs placebo,−12.6%
same,"Monounsaturated, proportion of total fatty acids, plasma, Change from baseline",2 g/day,−0.7 (0.4) mol %
same,"Saturated, proportion of total fatty acids, plasma, Change from baseline",2 g/day,−0.7 (0.3) mol %
same,"Total ω-3, proportion of total fatty acids, plasma, Change from baseline",2 g/day,2.1 (0.2) mol %
same,"Total ω-6, proportion of total fatty acids, plasma, Change from baseline",2 g/day,−0.8 (0.5) mol %
same,AA plasma Change from baseline,2 g/day,−31.1
same,DHA plasma Change from baseline,2 g/day,5.0
same,DPAn-3 plasma Change from baseline,2 g/day,22.4
same,Linoleic plasma Change from baseline,2 g/day,−35.0
same,Oleic plasma Change from baseline,2 g/day,−61.7
same,Palmitic plasma Change from baseline,2 g/day,−50.1
same,Ratio of AA/EPA plasma Change from baseline,2 g/day,−11.2
same,Ratio of total ω-3/total ω-6 plasma Change from baseline,2 g/day,0.1
same,Stearic plasma Change from baseline,2 g/day,−19.6
same,AA plasma End-of-treatment,2 g/day,266.7
same,DHA plasma End-of-treatment,2 g/day,62.7
same,DPAn-3 plasma End-of-treatment,2 g/day,44.3
same,Linoleic plasma End-of-treatment,2 g/day,1082
same,Oleic plasma End-of-treatment,2 g/day,972.1
same,Palmitic plasma End-of-treatment,2 g/day,1004
same,Ratio of AA/EPA plasma End-of-treatment,2 g/day,3.4
same,Ratio of total ω-3/total ω-6 plasma End-of-treatment,2 g/day,0.2
same,Stearic plasma End-of-treatment,2 g/day,276.2
same,"Monounsaturated, proportion of total fatty acids, plasma, End-of-treatment",2 g/day,28.0 (2.8) mol %
same,"Saturated, proportion of total fatty acids, plasma, End-of-treatment",2 g/day,33.6 (2.2) mol %
same,"Total ω-3, proportion of total fatty acids, plasma, End-of-treatment",2 g/day,5.1 (1.2) mol %
same,"Total ω-6, proportion of total fatty acids, plasma, End-of-treatment",2 g/day,33.3 (3.4) mol %
same,"Monounsaturated, proportion of total fatty acids, plasma, Placebo-adjusted percent change from baseline",4 g/day vs placebo,−5.8%
same,"Saturated, proportion of total fatty acids, plasma, Placebo-adjusted percent change from baseline",4 g/day vs placebo,0.4%
same,"Total ω-3, proportion of total fatty acids, plasma, Placebo-adjusted percent change from baseline",4 g/day vs placebo,142.2%
same,"Total ω-6, proportion of total fatty acids, plasma, Placebo-adjusted percent change from baseline",4 g/day vs placebo,−7.4%
same,AA plasma Placebo-adjusted percent change from baseline,4 g/day vs placebo,−30.7%
same,DHA plasma Placebo-adjusted percent change from baseline,4 g/day vs placebo,−2.9%
same,DPAn-3 plasma Placebo-adjusted percent change from baseline,4 g/day vs placebo,143.6%
same,Linoleic plasma Placebo-adjusted percent change from baseline,4 g/day vs placebo,−24.8%
same,Oleic plasma Placebo-adjusted percent change from baseline,4 g/day vs placebo,−30.1%
same,Palmitic plasma Placebo-adjusted percent change from baseline,4 g/day vs placebo,−23.3%
same,Ratio of AA/EPA plasma Placebo-adjusted percent change from baseline,4 g/day vs placebo,−90.3%
same,Ratio of total ω-3/total ω-6 plasma Placebo-adjusted percent change from baseline,4 g/day vs placebo,165.9%
same,Stearic plasma Placebo-adjusted percent change from baseline,4 g/day vs placebo,−16.5%
same,"Monounsaturated, proportion of total fatty acids, plasma, Change from baseline",4 g/day,−2.0 (0.4) mol %
same,"Saturated, proportion of total fatty acids, plasma, Change from baseline",4 g/day,−0.5 (0.3) mol %
same,"Total ω-3, proportion of total fatty acids, plasma, Change from baseline",4 g/day,4.4 (0.2) mol %
same,"Total ω-6, proportion of total fatty acids, plasma, Change from baseline",4 g/day,−1.8 (0.5) mol %
same,AA plasma Change from baseline,4 g/day,−60.1
same,DHA plasma Change from baseline,4 g/day,2.3
same,DPAn-3 plasma Change from baseline,4 g/day,31.8
same,Linoleic plasma Change from baseline,4 g/day,−152
same,Oleic plasma Change from baseline,4 g/day,−219
same,Palmitic plasma Change from baseline,4 g/day,−161
same,Ratio of AA/EPA plasma Change from baseline,4 g/day,−14.1
same,Ratio of total ω-3/total ω-6 plasma Change from baseline,4 g/day,0.2
same,Stearic plasma Change from baseline,4 g/day,−31.2
same,AA plasma End-of-treatment,4 g/day,222.8
same,DHA plasma End-of-treatment,4 g/day,53.6
same,DPAn-3 plasma End-of-treatment,4 g/day,50.2
same,Linoleic plasma End-of-treatment,4 g/day,921.8
same,Oleic plasma End-of-treatment,4 g/day,782.5
same,Palmitic plasma End-of-treatment,4 g/day,843.8
same,Ratio of AA/EPA plasma End-of-treatment,4 g/day,1.6
same,Ratio of total ω-3/total ω-6 plasma End-of-treatment,4 g/day,0.2
same,Stearic plasma End-of-treatment,4 g/day,253.4
same,"Monounsaturated, proportion of total fatty acids, plasma, End-of-treatment",4 g/day,26.7 (3.0) mol %
same,"Saturated, proportion of total fatty acids, plasma, End-of-treatment",4 g/day,33.6 (2.4) mol %
same,"Total ω-3, proportion of total fatty acids, plasma, End-of-treatment",4 g/day,7.1 (2.0) mol %
same,"Total ω-6, proportion of total fatty acids, plasma, End-of-treatment",4 g/day,32.6 (3.5) mol %
